Experimental data as given in patent EP3031809A1, “2-phenyl-7,7a-dihydro-3aH-pyran[3,4-d]oxazol-6(4H)-ones” (CONSEJO SUPERIOR DE INVESTIGACIONES CIENTIFICAS, priority 2014, dated 2016).

Columns and labels:
MCF-7 [1] = assay: Sphere test (formation of tumour mammospheres); type: cell-based; parameters: ACTIVITY IN SPHERE TEST % sphere formation MCF-7: concentration or dose not given beside the values; conditions: for ACTIVITY IN SPHERE TEST % sphere formation MCF-7: MCF-7 mammospheres, 7 days in suspension culture
Source text: (§1) The formation of spheres derived from breast tumours has been described as an effective method for enrichment of cell cultures in CSCs because of the higher ability of cells derived from these culture in generating tumours in vivo when transplanted in immunocompromised mice (Ponti D, et al., (2005) Cancer Res 65(13):5506-11, 34). A directly proportional relationship is therefore established between the percentage of the CSCs subpopulation in the culture and the ability to form spheres. Tumour cell lines growing in suspension are used in these tests in order to enrich the culture in tumour stem cells. CSCs are the only cells capable of proliferating in these conditions, giving rise to structures named spheres. In fact, the cells that grow in suspension acquire the properties of tumour stem cells and are used in the assays used in this patent for identifying drugs effective against them. In principle, compounds that affect tumour stem cells should slow their growth and potentially cause their death. This assay is tuned for breast cancer cell lines according to Leis, O., et al (2012), Oncogene, 31, 1354-1365. Cells are seeded at a density of 1,000 cells/mL on 6-well plates, previously treated with poly-HEMA (poly(2-hydroxyethyl methacrylate)), Sigma-Aldrich) to prevent the cells adhering to the plastic of the plate. A DMEM high glucose medium supplemented with F12 (Nutrient Mixture F-12 HAM, Sigma), B27 (B27 Supplement 50X, Gibco 17504-044) and growth factors, EGF and bFGF is used for culture. Methylcellulose at a final concentration of 0.5% was added to increase the viscosity of the culture medium. Cells were incubated for 7 days at 37° C, adding growth factors (20 ng/mL of each factor), every two days and counted under a microscope.

BT-474 = assay: Cell viability (cytotoxicity) assay with MTT; type: cell-based; conditions: for TOXICITY 1uM BT-474 (% viab. approx .): approximate viability percentage
Protocol: (§2) In order to determine the toxicity of the compound, cell viability assays were performed with MTT on breast tumour lines MCF-7, BT-474 and MDA-MB-436. […] The fact that cell viability was not affected at a high concentration reflects the low toxicity of the compound at the dose required for its effectiveness in functional assays.

MCF-7 [2] = assay: Cell viability (cytotoxicity) assay with MTT; type: cell-based; conditions: for TOXICITY 1uM MCF-7 (% viab. approx .): approximate viability percentage
Protocol: as §2

BT474 = assay: Sphere test (formation of tumour mammospheres); type: cell-based; parameters: ACTIVITY IN SPHERE TEST % sphere formation BT474: concentration or dose not given beside the values; conditions: for ACTIVITY IN SPHERE TEST % sphere formation BT474: BT474 mammospheres, 7 days in suspension culture
Source text: as §1

MDA-MB-436 [3] = assay: Sphere test (formation of tumour mammospheres); type: cell-based; conditions: for ACTIVITY IN SPHERE TEST % sphere formation MDA-MB-436: MDA-MB-436 mammospheres, 7 days in suspension culture
Source text: as §1

SOX-2 = assay: Reporter of the promoter region of enhancer R1 of SOX-2 in a transiently transfected breast tumour line; type: cell-based; conditions: breast tumour line MDA_MB-436 / HRE9X-LUC; cells cultivated in suspension; Fig. 2
Source text: In order to identify whether the direct inhibitors of mammosphere formation and HIF activity inhibited the transcriptional activation of SOX2, reported in breast cancer CSCs (Leis, O., et al (2012), Oncogene, 31, 1354-1365), breast tumour lines were constructed, transiently transfected with the promoter region of enhancer R1 of SOX-2 by Lipofectamine (Invitrogen) according to the manufacturer's instructions. Their induction on cultivating the cells in suspension was compared and the inhibition of this activation was measured on treating the cells with the inhibitor IQM11PS04.

HIF = assay: HRE-LUC test (9XHRE-LUC luciferase reporter of HIF activity in a breast tumour line); type: cell-based, human; conditions: for inhibition at 5 µM: Homo sapiens, inhibition percentage, read-out: HIF HRE-LUC (% inhib. 5µM)
Source text: In order to identify direct inhibitors of HIF activity, a breast tumour line MCF7 was first constructed containing the deoxyribonucleic acid sequences (DNA) of the region located between the positions -985 and -951 of the human vascular endothelium growth factor (hVEGF), repeated nine times (X9) and fused to the luciferase reporter gene (LUC) (Moreno-Manzano V, et al (2010) JBC 285 (2) 1333-1342). This plasmid called 9XHRE-LUC, kindly given by Dr Manuel Ortiz de Landazuri of the La Princesa Hospital of Madrid, was prepared using a commercial kit (Endofree Maxi-Prep; Qiagen, Inc., Valencia, CA). Transfections were performed with Lipofectamine (Invitrogen) according to the manufacturer's instructions.

MDA-MB-436 [4] = assay: Cell viability (cytotoxicity) assay with MTT; type: cell-based; conditions: 1µM and tenfold higher dose
Protocol: as §2

SMILES	ACTIVITY IN SPHERE TEST % sphere formation MCF-7 (MCF-7 [1])	TOXICITY 1uM BT-474 (% viab. approx .) (BT-474)	TOXICITY 1uM MCF-7 (% viab. approx .) (MCF-7 [2])	ACTIVITY IN SPHERE TEST % sphere formation BT474 (BT474)	ACTIVITY IN SPHERE TEST % sphere formation MDA-MB-436 (MDA-MB-436 [3])	inhibition of the induction of SOX2 (expression of the promoter region of enhancer R1 of SOX-2) (SOX-2)	action on HIF-2α (HIF; 1µM and tenfold higher dose)	inhibition at 5 µM (HIF)	inhibition in the expression of luciferase (HRE-LUC test) (HIF; increasing concentrations, Fig. 1)	inhibitory ability in the formation of mammospheres (MCF-7 [1]; 1 µM added in the final stage of sphere formation, MCF7, versus DMSO)	inhibitory ability in the formation of mammospheres (MDA-MB-436 [3]; 1 µM added in the final stage of sphere formation, MDA-MB-436, versus DMSO)	percentage of cell death in treated cultures (MDA-MB-436 [4])	percentage of cell death in treated cultures (BT-474; 1µM and tenfold higher dose, BT-474)	percentage of cell death in treated cultures (MCF-7 [2]; 1µM and tenfold higher dose, MCF-7)	inhibitory ability in the formation of mammospheres (BT474; 1 µM added in the final stage of sphere formation, BT474, versus DMSO)
COc1cccc(C2=NC3COC(=O)CC3O2)c1 (stereo not shown) [IQM11PS01, 2-(3-methoxyphenyl)-7,7a-dihydro-3aH-pyrano[3,4-d]oxazole-6(4H)-one]	0%	97%	115%	2%	–	–	–	–	–	–	–	–	–	–	–
COc1cc(OC)cc(C2=NC3COC(=O)CC3O2)c1 (stereo not shown) [IQM11PS02, 2-(3,5-dimethoxyphenyl)-7,7a-dihydro-3aH-pyrano[3,4-d]oxazole-6(4H)-one]	0%	55%	99%	4%	–	–	–	–	–	–	–	–	–	–	–
O=C1CC2OC(c3cc(OCc4ccccc4)cc(OCc4ccccc4)c3)=NC2CO1 (stereo not shown) [IQM11PS03, 2-(3,5-bis(benzyloxy)phenyl)-7,7a-dihydro-3aH-pyrano[3,4-d]oxazole-6(4H)-one]	0%	97%	98%	12%	88%	–	–	–	–	–	–	–	–	–	–
CCCOc1cccc(C2=NC3COC(=O)CC3O2)c1 (stereo not shown) [IQM11PS04, 2-(3-propoxyphenyl)-7,7a-dihydro-3aH-pyrano[3,4-d] oxazole-6(4H)-one]	0%	89%	109%	1%	–	significantly inhibits	significant action	92%	significantly inhibits	significant inhibitory ability	significant inhibitory ability	did not cause a significant increase	did not cause a significant increase	did not cause a significant increase	significant inhibitory ability
CCCCCOc1cccc(C2=NC3COC(=O)CC3O2)c1 (stereo not shown) [IQM11PS05, 2-(3-pentyloxyphenyl)-7,7a-dihydro-3aH-pyrano[3,4-d]oxazole-6(4H)-one]	0%	168%	92%	8%	–	–	–	96%	–	–	–	–	–	–	–
O=C1CC2OC(c3cccc(OCCN4CCOCC4)c3)=NC2CO1 (stereo not shown) [IQM11PS06, 2-(3-(2-morpholinoethoxy)phenyl)-7,7a-dihydro-3aH-pyrano[3,4-d]oxazole-6(4H)-one]	20%	86%	97%	27%	79%	–	–	–	–	–	–	–	–	–	–
